Measured values as given in patent US11142515B2, “Pyrazolyl-ureas as kinase inhibitors” (RESPIVERT LIMITED, priority 2014, dated 2021).

Tests used:
[1] = target: T1, Syk (Homo sapiens, UniProt P43405); assay: Syk enzyme inhibition (Z-LYTE FRET); type: biochemical
T1 construct: purchased Life Technologies
Method: (§1) The enzyme inhibitory activities of compounds disclosed herein were determined by FRET using synthetic peptides labelled with both donor and acceptor fluorophores (Z-LYTE, Life Technologies, Paisley, UK).
The relevant enzyme (1000 ng/mL, 1400 ng/mL or 2000 ng/mL respectively, 2.5 μL) was incubated with the test compound (either 40 μg/mL, 12 μg/mL, 4 μg/mL, 1.2 μg/mL, 0.4 μg/mL, 0.12 μg/mL, 0.04 μg/mL, 0.012 μg/mL, 0.004 μg/mL or 0.0012 μg/mL, 2.5 μL each) for 2 h at RT. The FRET peptides (8 μM, 2.5 μL), and appropriate ATP solutions (2.5 μL, 800 μM for c-Src, and 60 μM ATP for HCK and Syk) were then added to the enzyme/compound mixtures and incubated for 1 h at RT. Development reagent (protease, 5 μL) was added for 1 h prior to detection in a fluorescence microplate reader (EnVision, Perkin Elmer).
(§2) In all cases, the site-specific protease cleaves non-phosphorylated peptide only and eliminates the FRET signal. Phosphorylation levels of each reaction were calculated using the ratio of coumarin emission (donor) over fluorescein emission (acceptor), for which low ratios indicate high phosphorylation and high ratios indicate low phosphorylation levels.

[2] = target: T2, GSK 3α enzyme isoform (Homo sapiens, UniProt P49840); assay: GSK 3α enzyme inhibition (Z-LYTE FRET); type: biochemical
T2 construct: purchased Life Technologies
Method: as §1
The GSK3a protein (500 ng/mL, 2.5 μL) was incubated with the test compound (2.5 μL at either 40 μg/mL, 12 μg/mL, 4 μg/mL, 1.2 μg/mL, 0.4 μg/mL, 0.12 μg/mL, 0.04 μg/mL, 0.012 μg/mL, 0.004 μg/mL or 0.0012 μg/mL) for 2 h at RT. The FRET peptide (8 μM, 2.5 μL), which is a phosphorylation target for GSK3α, and ATP (40 μM, 2.5 μL) was then added to the enzyme/compound mixture and the resulting mixture incubated for 1 h at RT. Development reagent (protease, 5 μL) was added for 1 h prior to detection in a fluorescence microplate reader (EnVision, Perkin Elmer).
as §2

[3] = test system: PBMCs (mitosis); assay: Cell mitosis assay in PHA-treated PBMCs; type: cell-based, human
Method: Peripheral blood mononucleocytes (PBMCs) from healthy subjects were separated from whole blood (Quintiles, London, UK) using a density gradient (Histopaquee-1077, Sigma-Aldrich, Poole, UK). The PBMCs (3 million cells per sample) were subsequently treated with 2% PHA (Sigma-Aldrich, Poole, UK) for 48 h, followed by a 20 h exposure to varying concentrations of test compounds. At 2 h before collection, PBMCs were treated with demecolcine (0.1 μg/mL; Life Technologies, Paisley, UK,) to arrest cells in metaphase.

[4] = test system: d-U937 cells; assay: Cell viability: MTT assay in differentiated U937 cells; type: cell-based, human; settings: 10 μg/mL
Method: Differentiated U937 cells were pre-incubated with each test compound (final concentration 10 μg/mL in 200 μL media indicated below) under two protocols: the first for 4 h in 5% FCS RPMI1640 media and the second in 10% FCS RPMI1640 media for 24 h. The supernatant was replaced with new media (200 μL) and MTT stock solution (10 μL, 5 mg/mL) was added to each well. After incubation for 1 h the media were removed, DMSO (200 μL) was added to each well and the plates were shaken lightly for 1 h prior to reading the absorbance at 550 nm. The percentage loss of cell viability was calculated for each well relative to vehicle (0.5% DMSO) treatment. Consequently an apparent increase in cell viability for drug treatment relative to vehicle is tabulated as a negative percentage.

[5] = test system: sputum macrophages from COPD patients; assay: Cytokine production in LPS-treated sputum macrophages from COPD patients; type: cell-based, human
Method: Patients with COPD inhaled a nebulised solution of 3% (w/v) hypertonic saline using an ultrasonic nebuliser (Devilbiss, Carthage, Mo.) with tidal breathing for 5 min. This procedure was repeated a maximum of three times until enough sputum was obtained. The sputum samples were homogenized and mixed vigorously using a vortex mixer in 0.02% v/v dithiothreitol (DTT) solution. The samples were re-suspended in PBS (40 mL) followed by centrifugation at 1500 rpm at 4° C. for 10 min to obtain sputum cell pellets. The pellets were washed with PBS (40 mL). The sputum cells were then re-suspended in 4 mL macrophage serum-free medium (macrophage-SFM, Life technologies, containing 20 U/mL penicillin, 0.02 mg/mL streptomycin and 5 μg/mL amphotericin B) and seeded on high bound 96-well plate, followed by incubation for 1 h at 37° C. and at 5% CO2 to allow the macrophages to attach to the bottom of the plate. The cells on the plate were washed with fresh macrophage-SFM (200 μL/well) to remove neutrophils and other contaminated cells. The adherent cells (mainly sputum macrophages) on the plate were used for further analysis. Sputum inductions were conducted in Quintiles Drug Research Unit at Guys Hospital and ethics approval and written informed consent was obtained by Quintiles.
Where appropriate, 1 μL of a solution containing either the test compound or reference article at the stated concentrations (either 0.1 μg/mL, 0.01 μg/mL, or 0.001 μg/mL) or alternatively 1 μL of DMSO as the vehicle control was added to each well (200 μL in media) and the cells were incubated for 2 h. The cells were stimulated with LPS solution (50 μL, final concentration: 1 μg/mL) and incubated for 18 h at 37° C. and 5% CO2. The supernatant was then collected and kept at −80° C. Suitable luminex kits were used to measure the selected analytes. After thawing the supernatant, the magnetic antibody beads were multiplexed and incubated in a 96-well plate with standard, background solution or the appropriate volume of sample overnight with shaking at 4° C. After washing twice with 200 μL of wash buffer provided by the kit per well using a magnetic plate washer, the beads were incubated for 1 h at RT with the biotin conjugated antibody solution provided by the kit with shaking. Streptavidin solution was added for 30 min with shaking at RT. After washing with 200 μL wash buffer per well, the beads were resuspended in sheath fluid (150 μL) and analyzed immediately. The level of each analyte in the supernatant was calculated using Xcel Fit software with a 4 or 5-parameter equation using each standard curve. The inhibitions of each cytokine production were calculated at each concentration by comparison with vehicle control.

[6] = test system: HRV (RV16)-induced IL-8 release in BEAS2B cells; assay: Rhinovirus-induced IL-8 release in BEAS2B cells; type: cell-based, human
Method: Human rhinovirus RV16 is obtained from the American Type Culture Collection (Manassas, Va.). Viral stocks are generated by infecting MRC5 cells with HRV until 80% of the cells were cytopathic.
BEAS2B cells are infected with HRV at an MOI of 1.2 and incubated for 1 h at 33° C. with gentle shaking to promote absorption. The cells are then washed with PBS, fresh media added and the cells are incubated for a further 72 h. The supernatant is collected for assay of IL-8 concentrations using a Duoset ELISA development kit (R&D systems, Minneapolis, Minn.). Compounds are added 2 h before HRV infection and 1 h after infection when non-infected HRV is washed out.

[7] = test system: neutrophil accumulation in BALF; assay: LPS-induced neutrophil accumulation in mice; type: in vivo, Balb/c mice; settings: 1.75 μg/mouse
Method: Non-fasted Balb/c mice were […] by the intra tracheal route with either vehicle, or the test substance at the indicated times (within the range 2-8 h) before stimulation of the inflammatory response by application of an LPS challenge. At T=0, mice were placed into an exposure chamber and exposed to LPS (7.0 mL, 0.5 mg/mL solution in PBS for 30 min). After a further 8 h the animals were anesthetized, their tracheas cannulated and BALF extracted by infusing and then withdrawing from their lungs 1.0 mL of PBS via the tracheal catheter. Total and differential white cell counts in the BALF samples were measured using a Neubaur haemocytometer. Cytospin smears of the BALF samples were prepared by centrifugation at 200 rpm for 5 min at RT and stained using a DiffQuik stain system (Dade Behring). Cells were counted using oil immersion microscopy. Data for neutrophil numbers in BAL are shown as mean±S.E.M. (standard error of the mean). The percentage inhibition of neutrophil accumulation was calculated for each treatment relative to vehicle treatment.

[8] = test system: alveolar macrophages and neutrophils in BALF; assay: Cigarette smoke model: macrophages and neutrophils in BALF; type: in vivo, A/J mice; settings: 1.75 μg/mouse (35 μL, bid, i.n.)
Method: A/J mice (males, 5 weeks old) were exposed to cigarette smoke (4% cigarette smoke, diluted with air) for 30 min/day for 11 days using a Tobacco Smoke Inhalation Experiment System for small animals (Model SIS-CS; Sibata Scientific Technology, Tokyo, Japan). […] At 12 h after the last […], each of the animals was anesthetized, the trachea cannulated and bronchoalveolar lavage fluid (BALF) was collected. The numbers of alveolar macrophages and neutrophils were determined by FACS analysis (EPICS® ALTRA II, Beckman Coulter, Inc., Fullerton, Calif., USA) using anti-mouse MOMA2 antibody (macrophage) or anti-mouse 7/4 antibody (neutrophil). BALF was centrifuged and the supernatant was collected. The level of keratinocyte chemoattractant (KC; CXCL1) in BALF was quantitated using a Quantikine® mouse KC ELISA kit (R&D systems, Inc., Minneapolis, Minn., USA).

T2 sequence (P49840 whole entry, canonical isoform): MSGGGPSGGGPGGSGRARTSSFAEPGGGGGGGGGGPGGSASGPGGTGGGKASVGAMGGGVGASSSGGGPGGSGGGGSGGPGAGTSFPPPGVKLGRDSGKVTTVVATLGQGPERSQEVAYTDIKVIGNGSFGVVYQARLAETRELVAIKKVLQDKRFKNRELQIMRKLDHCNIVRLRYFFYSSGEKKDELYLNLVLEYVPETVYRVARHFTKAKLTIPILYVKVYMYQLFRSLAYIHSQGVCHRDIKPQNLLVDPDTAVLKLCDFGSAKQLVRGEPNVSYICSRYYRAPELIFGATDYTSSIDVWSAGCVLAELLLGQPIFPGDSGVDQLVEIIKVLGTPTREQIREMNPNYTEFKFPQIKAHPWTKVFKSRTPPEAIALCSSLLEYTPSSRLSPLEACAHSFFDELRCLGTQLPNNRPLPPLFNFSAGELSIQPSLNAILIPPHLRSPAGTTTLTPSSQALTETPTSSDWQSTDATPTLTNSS

impact on cell division (mitosis) compared with Reference Compound [3]	SMILES	inhibitory activity against Syk (in words) [1]	inhibitory activity against GSK3a (in words) [2]	MTT Assay Cell viability at time point indicated in d-U937 Cells, 4 h ([4]; 4 h)	MTT Assay Cell viability at time point indicated in d-U937 Cells, 24 h ([4]; 24 h)	inhibition of pro-inflammatory cytokine production in sputum macrophage compared with fluticasone propionate [5]	inhibition of HRV-induced IL-8 (FIG. 1) [6]	inhibition at 0.1 µg/mL ([5]; Homo sapiens, Macrophage, read-out: E-max (maximum inhibition), IL-6 production in LPS-treated sputum macrophages) [%]	inhibition of LPS-induced neutrophil accumulation [7] [%]	neutrophil or macrophage accumulation into airways (cigarette smoke model) [8]
markedly less activity	CCc1cncc(Nc2cc(COc3ccc(NC(=O)Nc4cc(C(C)(C)C)nn4-c4ccc(C)cc4)c4ccccc34)ccn2)n1 [Example 2, 1-(3-(tert-Butyl)-1-(p-tolyl)-1H-pyrazol-5-yl)-3-(4-((2-((6-ethylpyrazin-2-yl)amino)pyridin-4-yl)methoxy)naphthalen-1-yl)urea]	very much weaker than the Reference Compound	very much weaker than the Reference Compound	− (−ve and +ve indicate the value is below and above, respectively, the no significant effect threshold defined as 30% inhibition at 10 μg/mL at the time point indicated)	− (−ve and +ve indicate the value is below and above, respectively, the no significant effect threshold defined as 30% inhibition at 10 μg/mL at the time point indicated)	higher efficacy	dose-dependent inhibition			
	CCC(=O)O[C@]1(C(=O)SCF)[C@H](C)C[C@H]2[C@@H]3C[C@H](F)C4=CC(=O)C=C[C@]4(C)[C@@]3(F)[C@@H](O)C[C@@]21C [Fluticasone propionate, fluticasone propionate, reference compound]							42	> 80	did not inhibit
